US10323022B2, “Pyrrolidinyl urea, pyrrolidinyl thiourea and pyrrolidinyl guanidine compounds as TrkA kinase inhibitors” (Array BioPharma Inc., priority 2011, dated 2019)
Structures can show the parent of a compound that is named as a salt.

Target: TrkA (Homo sapiens (Human), UniProt P04629)
Assay: TrkA Omnia Assay
Type: biochemical
Settings: averaged IC50; 20 nM enzyme, 500 μM ATP, 10 μM peptide substrate
In short: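 Continuous fluorescent kinase read-out (ex 360 nm, em 485 nm) over 70 min, with initial rates fitted to 4- or 5-parameter logistic curves for IC50. Final conditions: 500 μM ATP, 10 μM Omnia Tyr Peptide #4, 20 nM TrkA, MOPS pH 7.5 buffer with MgCl2 and Triton X-100; enzyme and compound preincubated 10 min at ambient temperature.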

TrkA, sequence (P04629 33-796): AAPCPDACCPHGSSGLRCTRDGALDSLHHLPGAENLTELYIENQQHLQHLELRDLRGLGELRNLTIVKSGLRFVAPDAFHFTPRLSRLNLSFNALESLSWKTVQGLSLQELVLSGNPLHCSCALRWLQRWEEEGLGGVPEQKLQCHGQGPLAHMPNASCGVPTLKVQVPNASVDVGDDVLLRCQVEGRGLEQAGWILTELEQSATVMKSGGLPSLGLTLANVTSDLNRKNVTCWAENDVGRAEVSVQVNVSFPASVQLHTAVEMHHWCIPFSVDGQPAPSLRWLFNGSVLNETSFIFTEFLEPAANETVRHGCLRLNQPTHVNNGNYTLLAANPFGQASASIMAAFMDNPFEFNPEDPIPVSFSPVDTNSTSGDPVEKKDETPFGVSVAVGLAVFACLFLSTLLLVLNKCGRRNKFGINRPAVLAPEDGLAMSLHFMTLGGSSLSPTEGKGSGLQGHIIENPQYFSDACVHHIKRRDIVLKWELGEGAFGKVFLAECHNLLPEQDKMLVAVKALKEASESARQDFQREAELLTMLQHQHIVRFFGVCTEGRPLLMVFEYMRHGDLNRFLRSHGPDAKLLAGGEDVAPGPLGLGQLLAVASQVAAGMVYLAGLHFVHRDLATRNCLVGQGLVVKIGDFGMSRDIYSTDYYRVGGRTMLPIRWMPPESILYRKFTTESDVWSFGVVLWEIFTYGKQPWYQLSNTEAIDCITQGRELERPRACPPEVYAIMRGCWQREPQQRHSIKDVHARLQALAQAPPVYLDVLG

| Compound | IC50 [nM] |
| --- | --- |
| Cc1nn(-c2ccccc2)c(NC(=O)N[C@H]2CN(CC(F)(F)F)C[C@@H]2c2ccccc2)c1C [Example 265, 1-(3,4-dimethyl-1-phenyl-1H-pyrazol-5-yl)-3-((3R,4S)-4-phenyl-1-(2,2,2-trifluoroethyl)pyrrolidin-3-yl)urea] | < 100 |
| COCCN1C[C@@H](NC(=O)Nc2c(C(F)(F)F)c(OC)nn2-c2ccccc2)[C@H](c2ccc(F)cc2)C1 [Example 607, 1-((3S,4R)-4-(4-fluorophenyl)-1-(2-methoxyethyl)pyrrolidin-3-yl)-3-(3-methoxy-1-phenyl-4-(trifluoromethyl)-1H-pyrazol-5-yl)urea] | < 100 |
| COCCN1C[C@@H](NC(=O)Nc2c(C)c(-c3ccc(=O)n(C(C)C)c3)nn2-c2ccccc2)[C@H](c2ccc(F)cc2)C1 [Example 536, 1-((3S,4R)-4-(4-fluorophenyl)-1-(2-methoxyethyl)pyrrolidin-3-yl)-3-(3-(1-isopropyl-6-oxo-1,6-dihydropyridin-3-yl)-4-methyl-1-phenyl-1H-pyrazol-5-yl)urea] | < 100 |
| Cc1c(OCCF)nn(-c2ccccc2)c1NC(=O)N[C@H]1CN(CC(F)(F)F)C[C@@H]1c1ccccc1 [Example 266, 1-(3-(2-fluoroethoxy)-4-methyl-1-phenyl-1H-pyrazol-5-yl)-3-((3R,4S)-4-phenyl-1-(2,2,2-trifluoroethyl)pyrrolidin-3-yl)urea] | < 100 |
| COCCN1C[C@@H](NC(=O)Nc2c(C)c(-c3cnn(C4CC4)c3)nn2-c2ccccc2)[C@H](c2ccc(F)c(F)c2)C1 [Example 509, 1-(1′-cyclopropyl-4-methyl-1-phenyl-1H,1′H-[3,4′-bipyrazol]-5-yl)-3-((3S,4R)-4-(3,4-difluorophenyl)-1-(2-methoxyethyl)pyrrolidin-3-yl)urea] | < 100 |
| COC[C@@H](N1C[C@@H](NC(=O)Nc2c(Cl)c(-c3cnn(C)c3)nn2-c2ccccc2)[C@H](c2ccc(F)c(F)c2)C1)C(F)(F)F [Example 278, 1-(4-chloro-1′-methyl-1-phenyl-1H, 1′H-3,4′-bipyrazol-5-yl)-3-((3S,4R)-4-(3,4-difluorophenyl)-1-((R)-1,1,1-trifluoro-3-methoxypropan-2-yl)pyrrolidin-3-yl)urea] | < 100 |
| COCCN1C[C@@H](NC(=O)Nc2cc(C(C)C)nn2-c2ccccc2)[C@H](c2cc(F)cc(F)c2)C1 [Example 85, 1-((3S,4R)-4-(3,5-difluoro-phenyl)-1-(2-methoxyethyl)pyrrolidin-3-yl)-3-(3-isopropyl-1-phenyl-1H-pyrazol-5-yl)urea] | < 100 |
| COCCN1C[C@@H](NC(=O)Nc2c(C)c(C)nn2C2CCCCC2)[C@H](c2ccc(F)c(F)c2)C1 [Example 473, 1-(1-cyclohexyl-3,4-dimethyl-1H-pyrazol-5-yl)-3-((3 S,4R)-4-(3,4-difluorophenyl)-1-(2-methoxyethyl)pyrrolidin-3-yl)urea] | < 100 |
| COCC(CO)N1C[C@@H](NC(=O)Nc2c(Cl)c(-c3cnn(C)c3)nn2-c2ccccc2)[C@H](c2ccc(F)c(F)c2)C1 (some centres unmarked) [Example 264] | < 100 |
| CCOc1nn(-c2ccccc2)c(NC(=O)N[C@H]2CN(c3ccnn3C)C[C@@H]2c2ccccc2)c1C [Example 229, 1-(3-ethoxy-4-methyl-1-phenyl-1H-pyrazol-5-yl)-3-((3R,4S)-1-(1-methyl-1H-pyrazol-5-yl)-4-phenylpyrrolidin-3-yl)urea] | < 100 |
| COCCN1C[C@@H](NC(=O)Nc2c3c(nn2-c2ccccc2)CCC3)[C@H](c2cccc(F)c2)C1 [Example 116, 1-((3S,4R)-4-(3-fluoro-phenyl)-1-(2-methoxy-ethyl)pyrrolidin-3-yl)-3-(2-phenyl-2,4,5,6-tetrahydrocyclopenta [c]pyrazol-3-yl)urea] | < 100 |
| CCOc1nn(-c2ccccc2)c(NC(=O)N[C@@H]2CN(CC(C)O)C[C@H]2c2ccc(F)c(F)c2)c1C (stereo partly drawn) [Example 470, 1-((3S,4R)-4-(3,4-difluorophenyvl)-1-(2-hydroxypropyl)pyrrolidin-3-yl)-3-(3-ethoxy-4-methyl-1-phenyl-1H-pyrazol-5-yl)urea] | 100 to 1000 |
| COCCN1C[C@@H](NC(=O)Nc2c(C)c(-c3cnn(C)c3)nn2-c2ccc(F)cc2)[C@H](c2ccc(F)cc2)C1 [Example 318, 1-((3S,4R)-4-(4-fluorophenyl)-1-(2-methoxyethyl)pyrrolidin-3-yl)-3-(1-(4-fluorophenyl)-1′,4-dimethyl-1H,1′H-[3,4′-bipyrazol]-5-yl)urea] | 100 to 1000 |
| O=C(Nc1c2c(nn1-c1ccccc1)CCC2)N[C@H]1CN(CC(F)(F)F)C[C@@H]1c1cccc(F)c1 [Example 204, 1-((3R,4S)-4-(3-fluorophenyl)-1-(2,2,2-trifluoroethyl)pyrrolidin-3-yl)-3-(2-phenyl-2,4,5,6-tetrahydrocyclopenta[c]pyrazol-3-yl)urea] | < 100 |
| COCCN1C[C@@H](NC(=O)Nc2cc(C(C)C)nn2-c2ccccc2)[C@H](c2cccs2)C1 (relative stereo) [Example 44, trans-1-(3-isopropyl-1-phenyl-1H-pyrazol-5-yl)-3-(1-(2-methoxyethyl)-4-(thiophen-2-yl)pyrrolidin-3-yl)urea] | < 100 |
| COCCN1C[C@@H](NC(=O)Nc2c(C)c(-c3ccn(C)n3)nn2-c2ccccc2)[C@H](c2ccc(F)cc2)C1 [Example 492, 1-(1′,4-dimethyl-1-phenyl-1H, 1′H-[3,3′-bipyrazol]-5-yl)-3-((3S,4R)-4-(4-fluorophenyl)-1-(2-methoxyethyl)pyrrolidin-3-yl)urea] | < 100 |
| COCCN1C[C@@H](NC(=O)Nc2c(Cl)c(C(F)(F)CO)nn2-c2ccccc2)[C@H](c2cc(F)cc(F)c2)C1 [Example 410, 1-(4-chloro-3-(1,1-difluoro-2-hydroxyethyl)-1-phenyl-1H-pyrazol-5-yl)-3-((3S,4R)-4-(3,5-difluorophenyl)-1-(2-methoxyethyl)pyrrolidin-3-yl)urea] | < 100 |
| COCCN1C[C@@H](NC(=O)Nc2c(-c3ccccc3)nn3ccccc23)[C@H](c2ccc(F)c(F)c2)C1 [Example 635, 1-((3S,4R)-4-(3,4-difluorophenyl)-1-(2-methoxyethyl)pyrrolidin-3-yl)-3-(2-phenylpyrazolo[1,5-a]pyridin-3-yl)urea] | < 100 |
| CC[C@@H](O)COc1nn(-c2ccccc2)c(NC(=O)N[C@@H]2CN(CCOC)C[C@H]2c2cc(F)cc(F)c2)c1C [Example 378, 1-((3S,4R)-4-(3,5-difluorophenyl)-1-(2-methoxyethyl)pyrrolidin-3-yl)-3-(3-((R)-2-hydroxybutoxy)-4-methyl-1-phenyl-1H-pyrazol-5-yl)urea] | < 100 |

Second part, the compound after the results:

| IC50 [nM] | Compound |
| --- | --- |
| < 100 | COCCN1C[C@@H](NC(=O)Nc2c(C#N)c(CC#N)nn2-c2ccccc2)[C@H](c2ccc(F)c(F)c2)C1 [Example 70, 1-(4-cyano-3-(cyano-methyl)-1-phenyl-1H-pyrazol-5-yl)-3-((3S,4R)-4-(3,4-difluorophenyl)-1-(2-methoxyethyl)pyrrolidin-3-yl)urea] |
| < 100 | COCCN1C[C@@H](NC(=O)Nc2c(C)c(=O)[nH]n2-c2ccccc2)[C@H](c2cc(F)c(F)c(F)c2)C1 [Example 612, 1-((3S,4R)-1-(2-methoxyethyl)-4-(3,4,5-trifluorophenyl)pyrrolidin-3-yl)-3-(4-methyl-5-oxo-2-phenyl-2,5-dihydro-1H-pyrazol-3-yl)urea] |
| < 100 | COCCCc1nn(-c2ccccc2)c(NC(=O)N[C@@H]2CN(CCOC)C[C@H]2c2cc(F)cc(F)c2)c1C [Example 281, 1-((3S,4R)-4-(3,5-difluorophenyl)-1-(2-methoxyethyl)pyrrolidin-3-yl)-3-(3-(3-methoxypropyl)-4-methyl-1-phenyl-1H-pyrazol-5-yl)urea] |
| < 100 | COCCN1C[C@@H](NC(=O)Nc2cc(C(C)C)nn2-c2ccccc2)[C@H](c2ccc(F)c(F)c2)C1 (relative stereo) [Example 4, trans-1-(4-(3,4-difluorophenyl)-1-(2-methoxyethyl)pyrrolidin-3-yl)-3-(3-isopropyl-1-phenyl-1H-pyrazol-5-yl) urea] |
| < 100 | COCCN1C[C@@H](NC(=O)Nc2c(Cl)c(-c3nc(C)no3)nn2-c2ccccc2)[C@H](c2ccc(F)c(F)c2)C1 [Example 416, 1-(4-chloro-3-(3-methyl-1,2,4-oxadiazol-5-yl)-1-phenyl-1H-pyrazol-5-yl)-3-((3S,4R)-4-(3,4-difluorophenyl)-1-(2-methoxyethyl)pyrrolidin-3-yl)urea] |
| < 100 | COCCN1C[C@@H](NC(=O)Nc2c(C)c(OC[C@H](C)O)nn2-c2ccccc2)[C@H](c2ccc(F)c(F)c2)C1 [Example 179, 1-((3S,4R)-4-(3,4-difluorophenyl)-1-(2-methoxyethyl)pyrrolidin-3-yl)-3-(3-((S)-2-hydroxypropoxy)-4-methyl-1-phenyl-1H-pyrazol-5-yl)urea hydrochloride] |
| < 100 | CCOc1nn(-c2ccccc2)c(NC(=O)N[C@@H]2CN(CCOC)C[C@H]2c2ccc(F)c(F)c2)c1F [Example 357, 1-((3S,4R)-4-(3,4-difluorophenyl)-1-(2-methoxyethyl)pyrrolidin-3-yl)-3-(3-ethoxy-4-fluoro-1-phenyl-1H-pyrazol-5-yl)urea] |
| < 100 | COCCN1C[C@@H](NC(=O)Nc2c(F)c(-c3cnn(C)c3)nn2-c2ccccc2)[C@H](c2cc(F)cc(F)c2)C1 [Example 439, 1-((3S,4R)-4-(3,5-difluorophenyl)-1-(2-methoxyethyl)pyrrolidin-3-yl)-3-(4-fluoro-1′-methyl-1-phenyl-1H,1′H-[3,4′-bipyrazol]-5-yl)urea] |
| < 100 | COCCN1C[C@@H](NC(=O)Nc2c(-c3ccccc3)c(C)nn2C)[C@H](c2ccc(F)c(F)c2)C1 [Example 65, 1-((3S,4R)-4-(3,4-difluorophenyl)-1-(2-methoxyethyl)pyrrolidin-3-yl)-3-(1,3-dimethyl-4-phenyl-1H-pyrazol-5-yl) urea] |
| 100 to 1000 | COCCN1C[C@@H](NC(=O)Nc2c(Br)c(C(=O)O)nn2-c2ccccc2)[C@H](c2ccc(F)c(F)c2)C1 [Example 553, 4-bromo-5-(3-((3S,4R)-4-(3,4-difluorophenyl)-1-(2-methoxyethyl)pyrrolidin-3-yl)ureido)-1-phenyl-1H-pyrazole-3-carboxylic acid] |
